Where two headings read alike, the source gives them in different places. Blank lines part the entries; values can stand above or below the compound they belong to.
Legend:
[1] = tested on: human skin fibroblasts (CCD25Sk)
A375 melanoma cells [2] = tested on: A375 melanoma cells
Experimental: (§1) The NRU (neutral red uptake) was conducted as previously described by Szoka and co-workers, with some modifications [22]. Briefly, melanoma cells and fibroblasts were seeded in microplates at the density of 1 × 10^4 cells per well and allowed to adhere for 24 h. […] After treatment, the culture medium was replaced with a neutral red solution (40 µg/mL). An additional 2 h of incubation was performed. The neutral red solution was then removed and the neutral red accumulated in the cells was dissolved in 50% EtOH with 1% of the glacial acetic acid. The absorbance was estimated at 540 nm and IC50 values were calculated using GraphPad Prism software (GraphPad Software, San Diego, CA, USA).

A375 melanoma cells [3] = tested on: A375 melanoma cells; remark: listed apart in the source
[4] = tested on: human skin fibroblasts (CCD25Sk); remark: listed apart in the source
C32 melanoma cells [5] = tested on: C32 melanoma cells
C32 melanoma cells [6] = tested on: C32 melanoma cells; remark: listed apart in the source
C32 melanoma cells [7] = experiment: Neutral red uptake (NRU) assay, C32
[8] = tested on: human skin fibroblasts (CCD25Sk); experiment: Neutral red uptake (NRU) assay, normal cells; conditions: read-out: IC50, cytotoxic activity, NRU assay, Normal cells (fibroblasts)
A375 melanoma cells [9] = experiment: Neutral red uptake (NRU) assay, A375; conditions: read-out: IC50, cytotoxic activity, NRU assay
Experimental: as §1

[10] = tested on: cleaved caspase-3 and cleaved caspase-7 in C32 cells; experiment: Immunofluorescence of cleaved caspase-3/-7, C32; type: cell-based, human; conditions: C32, 48 h, immunofluorescent staining
A375 melanoma cells [11] = experiment: Apoptosis assay, annexin V/PI flow cytometry, A375; type: cell-based, human; conditions: A375, 25 µM, 48 h
Experimental: Firstly, cells were placed in 6-well plates at a density of 1 × 10^5 cells per well and allowed to adhere for 24 h. Then, cells were treated with 25 µM, 50 µM, and 100 μM of the selected flavonoids (1, 6, 15, 16, 17, 37) and incubated for 48 h. Floating and adherent cells were collected and assayed using the manufacturer’s protocol supported by the Dead Cell Apoptosis Kit for flow cytometry. Concisely, 100 μL of an annexin-binding buffer containing a 5 μL annexin V-FITC conjugate solution and 1 μg/mL PI (propidium iodide) was used to disperse the cells. After 15 min of incubation, an additional 400 μL of the mentioned buffer was added. The cells were analyzed with a DxFLEX flow cytometer (Beckman Coulter, Brea, CA, USA).

C32 melanoma cells [12] = experiment: MTT cell viability assay, C32; conditions: read-out: IC50, cytotoxic activity, MTT test;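 further: MTT added for 2 h, cells lysed in DMSO, absorbance read at 570 nm, compound vehicle kept at or below 0.1% DMSO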
[13] = tested on: caspases, PARP, phospho-RSK in A375 cells; experiment: Western immunoblot of apoptosis mediators and RSK, A375; type: cell-based, human; conditions: A375, 48 h, Western blot
A375 melanoma cells [14] = experiment: MTT cell viability assay, A375;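 further: Read-out is formazan absorbance at 570 nm after 2 h with MTT, with compounds in at most 0.1% v/v DMSO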
[15] = tested on: cleaved caspase-3 and cleaved caspase-7 in A375 cells; experiment: Immunofluorescence of cleaved caspase-3/-7, A375; type: cell-based, human; conditions: A375, 48 h, immunofluorescent staining
Experimental: Firstly, to examine fluorescent signals, cells were placed in the bottom of 96-well black plates at 1 × 10^4 cells per well and permitted to adhere for 24 h. […] After incubating and removing the medium, cells were fixed in 4% paraformaldehyde for 15 min. Later, cells were rinsed three times with PBS and permeabilized with 0.1% Triton X-100 for 5 min at room temperature. The 10% heat-inactivated goat serum in the PBS was used to block non-specific binding. Subsequently, cells were treated with the following antibodies overnight: anti-cleaved caspase 3 and anti-cleaved caspase-7. […] Cell nuclei were stained with Hoechst 33342 and F-actin was stained with Phalloidin-Atto 488. Fluorescent signals were captured using a BD Pathway 855 confocal microscope (Becton Dickinson, Franklin Lakes, NJ, USA). The mean fluorescence intensity was calculated using ImageJ software (National Institutes of Health, Bethesda, Rockville, MD, USA).

[16] = tested on: human skin fibroblasts (CCD25Sk); experiment: [3H]-thymidine incorporation (DNA biosynthesis), normal cells; type: cell-based; conditions: Homo sapiens, Skin fibroblast, read-out: IC50, effect on DNA biosynthesis ([3H]-thymidine incorporation)
[17] = Neutral red uptake (NRU) assay, normal cells; conditions: human, human skin fibroblasts (CCD25Sk)
[18] = tested on: caspases, PARP, phospho-RSK in C32 cells; experiment: Western immunoblot of apoptosis mediators and RSK, C32; type: cell-based, human; conditions: C32, 48 h, Western blot
C32 melanoma cells [19] = experiment: [3H]-thymidine incorporation (DNA biosynthesis), C32; type: cell-based, human; conditions: Homo sapiens, read-out: IC50, effect on DNA biosynthesis ([3H]-thymidine incorporation)
Experimental: (§2) The inhibition of DNA biosynthesis was evaluated using [^3H]-thymidine incorporation into the DNA of melanoma cells (C32, A375) and fibroblasts treated with the studied compounds [21]. The cells were briefly seeded in 24-well plates (1 × 10^5 cells per well) and allowed to adhere for 24 h. […] After incubation for 24, 48, and 72 h, the cells were rinsed three times with PBS. Then, cells were lysed in 1 mL of 0.1 M NaOH containing 1% SDS. The cell lysate was moved into scintillation vials containing scintillation liquid, and the radioactivity of the samples was measured using a liquid scintillation analyzer (Perkin-Elmer, Waltham, MA, USA).

[20] = MTT cell viability assay, normal cells; conditions: human, human skin fibroblasts (CCD25Sk);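 further: fibroblasts served as non-cancer comparison line for selectivity versus melanoma cells, MTT reduction read as absorbance at 570 nm after 2 h dye exposure, compounds in ≤0.1% DMSO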
A375 melanoma cells [21] = experiment: [3H]-thymidine incorporation (DNA biosynthesis), A375; type: cell-based, human; conditions: read-out: IC50, effect on DNA biosynthesis ([3H]-thymidine incorporation)
Experimental: as §2

[22] = tested on: human skin fibroblasts (CCD25Sk); experiment: MTT cell viability assay, normal cells; conditions: read-out: IC50, cytotoxic activity, MTT test, Normal cells (fibroblasts);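 further: fibroblasts served as non-cancer comparison line for selectivity versus melanoma cells, MTT reduction read as absorbance at 570 nm after 2 h dye exposure, compounds in ≤0.1% DMSO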
[23] = read-out: IC50, cytotoxic activity, NRU assay, C32, 24 h
[24] = read-out: IC50, cytotoxic activity, NRU assay, C32, 48 h
[25] = read-out: IC50, cytotoxic activity, NRU assay, C32, 72 h
[26] = read-out: IC50, cytotoxic activity, MTT test, A375, 48 h

IC50 [1]: > 200 µM
IC50 (A375 melanoma cells [2]): > 200 µM
IC50 (A375 melanoma cells [3]): > 200 µM
IC50 [4]: > 200 µM
IC50 (C32 melanoma cells [5]): > 200 µM
IC50 (C32 melanoma cells [6]): > 200 µM
Compound: O=c1cc(-c2ccc(O)c(O)c2)oc2cc(OC3OC(CO)C(O)C(O)C3OC3OCC(O)C(O)C3O)cc(O)c12 (stereo not shown) [Compound 9, luteolin 7-O-sambubioside]

Compound: COc1cc(-c2cc(=O)c3c(O)cc(O)c([C@@H]4OC[C@@H](O)[C@H](O)[C@H]4O[C@@H]4O[C@H](CO)[C@@H](OC(C)=O)[C@H](O)[C@H]4O)c3o2)ccc1OC(C)=O [Compound 12, 5,7-dihydroxy-3′-methoxy-4′-acetoxyflavone-8-C-xyloside-2″-O-(4‴-acetoxy)-glucoside]
IC50 [1]: > 200 µM
IC50 (A375 melanoma cells [2]): > 200 µM
IC50 (A375 melanoma cells [3]): > 200 µM
IC50 [4]: > 200 µM
IC50 (C32 melanoma cells [5]): > 200 µM
IC50 (C32 melanoma cells [6]): > 200 µM

Compound: CC(=O)Oc1ccc(-c2cc(=O)c3c(O)cc(O)c([C@@H]4OC[C@@H](O)[C@H](O)[C@H]4O[C@@H]4O[C@H](CO)[C@@H](O)[C@H](O)[C@H]4O)c3o2)cc1O [Compound 10, 5,7,3′-trihydroxy-4′-acetoxy-flavone-8-C-xyloside-2″-O-glucoside]
IC50 (C32 melanoma cells [7]; [23]): > 200 µM
IC50 (C32 melanoma cells [7]; [24]): > 200 µM
IC50 (C32 melanoma cells [7]; [25]): > 200 µM
IC50 [1]: > 200 µM
IC50 (A375 melanoma cells [3]): > 200 µM
IC50 ([8]; 24 h): > 200 µM
IC50 ([8]; 48 h): > 200 µM
IC50 ([8]; 72 h): > 200 µM
IC50 (A375 melanoma cells [9]; A375, 24 h): > 200 µM
IC50 (A375 melanoma cells [9]; A375, 48 h): > 200 µM
IC50 (A375 melanoma cells [9]; A375, 72 h): > 200 µM
IC50 (C32 melanoma cells [6]): > 200 µM

IC50 [1]: > 200 µM
IC50 (A375 melanoma cells [3]): > 200 µM
IC50 (C32 melanoma cells [6]): > 200 µM
Compound: COc1ccc(-c2cc(=O)c3c(O)cc(O)c([C@@H]4OC[C@@H](O)[C@H](O)[C@H]4O[C@@H]4O[C@H](CO)[C@@H](O)[C@H](O)[C@H]4O)c3o2)cc1O [Compound 11, 5,7,3′-trihydroxy-4′-methoxyflavone-8-C-xyloside-2″-O-glucoside]
IC50 (C32 melanoma cells [7]; [23]): > 200 µM
IC50 (C32 melanoma cells [7]; [24]): > 200 µM
IC50 (C32 melanoma cells [7]; [25]): > 200 µM
IC50 ([8]; 24 h): > 200 µM
IC50 ([8]; 48 h): > 200 µM
IC50 ([8]; 72 h): > 200 µM
IC50 (A375 melanoma cells [9]; A375, 24 h): > 200 µM
IC50 (A375 melanoma cells [9]; A375, 48 h): > 200 µM
IC50 (A375 melanoma cells [9]; A375, 72 h): > 200 µM

IC50 at 24 h [17]: > 200 µM
IC50 at 48 h [17]: 45.2 ± 2.6 µM
IC50 at 72 h [17]: 21.4 ± 1.7 µM
IC50 (C32 melanoma cells [19]; C32, C32, 24 h): > 200 µM
IC50 (C32 melanoma cells [19]; C32, C32, 48 h): 30.9 ± 2.2 µM
IC50 (C32 melanoma cells [19]; C32, C32, 72 h): 24.5 ± 1.81 µM
IC50 (A375 melanoma cells [21]; A375, 48 h): 38.5 ± 2.9 µM
IC50 (A375 melanoma cells [21]; Homo sapiens, A-375, A375, 24 h): > 200 µM
IC50 (A375 melanoma cells [21]; Homo sapiens, A-375, A375, 48 h): 38.6 ± 0.91 µM
IC50 (A375 melanoma cells [21]; Homo sapiens, A-375, A375, 72 h): 30.9 ± 1.8 µM
Compound: O=c1cc(-c2ccc(O)c(O)c2)oc2cc(O)cc(O)c12 [Compound 6, luteolin]
caspase-3 expression [10]: notably extended
level of the cleaved caspase-7 [10]: slightly increased
level of early apoptotic cells (A375 melanoma cells [11]): 63.6 ± 6.1%
level of late apoptotic cells (A375 melanoma cells [11]): 13.0 ± 1.8%
IC50 (C32 melanoma cells [12]; Homo sapiens, C32, 24 h): > 200 µM
IC50 (C32 melanoma cells [12]; Homo sapiens, C32, 48 h): 42.1 ± 3.5 µM
IC50 (C32 melanoma cells [12]; Homo sapiens, C32, 72 h): 13.1 ± 1.3 µM
IC50 (C32 melanoma cells [7]; Homo sapiens, C32, 24 h, read-out: IC50, cytotoxic activity, NRU assay, C32, 24 h): 41.3 ± 3.8 µM
IC50 (C32 melanoma cells [7]; Homo sapiens, C32, 48 h, read-out: IC50, cytotoxic activity, NRU assay, C32, 48 h): 13.1 µM
IC50 (C32 melanoma cells [7]; Homo sapiens, C32, 72 h, read-out: IC50, cytotoxic activity, NRU assay, C32, 72 h): 12.6 ± 1.2 µM
cleavage of initiator caspases, caspase-9 and caspase-8 [13]: cleavage of both initiator caspases
levels of the caspases-3 and -7 zymogens [13]: decreased levels
IC50 (A375 melanoma cells [14]; Homo sapiens, A-375, 24 h, read-out: IC50, cytotoxic activity, MTT test, A375, 24 h): > 200 µM
IC50 (A375 melanoma cells [14]; Homo sapiens, A-375, 48 h, read-out: IC50, cytotoxic activity, MTT test, A375, 48 h): 38.2 µM
IC50 (A375 melanoma cells [14]; Homo sapiens, A-375, 72 h, read-out: IC50, cytotoxic activity, MTT test, A375, 72 h): 24.6 ± 1.6 µM
IC50 (A375 melanoma cells [14]; [26]): 38.2 ± 4.1 µM
level of cleaved caspase-3 [15]: slightly increased
IC50 ([16]; 24 h): > 200 µM
IC50 ([16]; 48 h): > 200 µM
IC50 ([16]; 72 h): > 200 µM
cleaved PARP and caspase-9 [18]: generated cleaved PARP and caspase-9
IC50 (A375 melanoma cells [9]; Homo sapiens, A-375, 24 h): 58.1 ± 4.2 µM
IC50 (A375 melanoma cells [9]; Homo sapiens, A-375, 48 h): 25.7 µM
IC50 (A375 melanoma cells [9]; Homo sapiens, A-375, 72 h): 23.9 ± 0.23 µM
IC50 at 24 h [20]: > 200 µM
IC50 at 48 h [20]: 69.7 ± 5.2 µM
IC50 at 72 h [20]: 20.1 ± 1.4 µM

Compound: kaempferol 3-O-galactoside [Compound 22]
IC50 (C32 melanoma cells [12]; C32, 24 h): > 200 µM
IC50 (C32 melanoma cells [12]; C32, 48 h): > 200 µM
IC50 (C32 melanoma cells [12]; C32, 72 h): > 200 µM
IC50 (C32 melanoma cells [7]; [23]): > 200 µM
IC50 (C32 melanoma cells [7]; [24]): > 200 µM
IC50 (C32 melanoma cells [7]; [25]): > 200 µM
IC50 (A375 melanoma cells [14]; read-out: IC50, cytotoxic activity, MTT test, A375, 24 h): > 200 µM
IC50 (A375 melanoma cells [14]; [26]): > 200 µM
IC50 (A375 melanoma cells [14]; read-out: IC50, cytotoxic activity, MTT test, A375, 72 h): > 200 µM
IC50 ([8]; 24 h): > 200 µM
IC50 ([8]; 48 h): > 200 µM
IC50 ([8]; 72 h): > 200 µM
IC50 (A375 melanoma cells [9]; A375, 24 h): > 200 µM
IC50 (A375 melanoma cells [9]; A375, 48 h): > 200 µM
IC50 (A375 melanoma cells [9]; A375, 72 h): > 200 µM
IC50 ([22]; 24 h): > 200 µM
IC50 ([22]; 48 h): > 200 µM
IC50 ([22]; 72 h): > 200 µM

Compound: COc1cc(-c2cc(=O)c3c(O)cc(O)c(C4OCC(O)C(O)C4OC4OC(CO)C(OC(C)=O)C(O)C4O)c3o2)ccc1OC(C)=O (stereo not shown) [Compound 13, 5,7-dihydroxy-3′-methoxy-4′-acetoxyflavone-8-C-arabinoside-2″-O-(4‴-acetoxy)-glucoside]
IC50 [1]: > 200 µM
IC50 (A375 melanoma cells [2]): > 200 µM
IC50 (A375 melanoma cells [3]): > 200 µM
IC50 [4]: > 200 µM
IC50 (C32 melanoma cells [5]): > 200 µM
IC50 (C32 melanoma cells [6]): > 200 µM

Reference: PMC10854695, “Using Flavonoid Substitution Status to Predict Anticancer Effects in Human Melanoma Cancers: An In Vitro Study” (Cancers, 2024)
